# Data from PMC8443589, “Modelling human liver fibrosis in the context of non-alcoholic steatohepatitis using a microphysiological system” (Communications Biology, 2021).
# Key:
# [1] = Non-specific compound binding: drug recovery in blank liver MPS plates (no cells), LC-MS; assay type: in vitro ADME; conditions: blank liver MPS platform/plates, vs input media, read-out: Drug recovery incubation in blank MPS platform (no cells)
# [2] = system: liver MPS NASH model (PHH, KC and HSC co-cultures, high fat); assay: Secreted cytokine/biomarker profile (Luminex, ELISA) of liver MPS NASH model dosed with OCA or ELF; assay type: cell-based, human
# Protocol: Fig. 3 Obeticholic acid and Elafibranor both modulate inflammatory and fibrosis phenotype in liver MPS NASH model and phenotype can additionally be reversed with dietary changes. PHH, KC and HSC co-cultures were cultured in the MPS platform under high fat conditions and dosed with varying concentrations of Obeticholic acid (OCA) and Elafibranor (ELF) QD or vehicle control (control) for 10 days, following an initial 4-day pre-culture phase. a The secreted cytokine profile from liver microtissues was compared by Luminex to determine the effects of each compound on the inflammatory profile of the liver with samples analysed at day 8 and 14 of the culture. Data were normalised by Z-transformation to allow comparison of all analytes and presented as a heatmap. b The expression of fibrosis-associated genes was analysed in total RNA from control, OCA and ELF treated liver microtissues (highest concentration for each compound) using Human Fibrosis RT2 Profiler PCR Arrays. Gene expression changes are expressed as a fold change over control. c Liver microtissues were stained for collagen-type I, α-SMA, nuclei (DAPI - blue), phalloidin (green) and imaged by confocal microscopy. Representative images are shown and scale bars 200 µm. d Staining of microtissue was quantified by measuring total fluorescence intensity throughout individual microtissues, each data point represents an average of all the microtissues imaged within an MPS scaffold (min 8, max 20 microtissues). e PHH, KC and HSC co-cultures were cultured in the MPS platform under high fat or lean conditions for 30 days. Cultures either remained in the same type of media throughout or were switched at day 15 from fat media to lean media (Fat -> Lean). Cell culture medium samples were analysed for the presence of IL-6, f MCP-1, g TIMP-1, which were measured by ELISA. h Microtissues were stained with Oil-Red O to determine fat loading during culture period, total stain was quantified by absorbance at 510 nm. All datapoints shown, either as box-whisker plots highlighting mean and min-max or with error bars highlighting means ± SD. All data from a minimum of three independent cultures; statistical comparisons made to control samples unless other comparison shown.
# Soluble biomarkers in cell culture medium from the MPS were analysed by enzyme-linked immunosorbent assay (ELISA); IL-6 was measured by Human IL-6 DuoSet ELISA (R&D Systems); MCP-1 was measured by Human CCL2/MCP-1 DuoSet ELISA (R&D Systems); pro-collagen 1 was measured by Human Pro-Collagen I α1 DuoSet (R&D Systems); TIMP-1 was measured by Human TIMP-1 Quantikine ELISA Kit (R&D Systems); Fibronectin was measured by Human Fibronectin DuoSet ELISA (R&D Systems); YKL-40 was measured by Human Chitinase 3-like 1 Quantikine ELISA Kit (R&D Systems); Albumin secretion was measured by Human Albumin AssayMax™ ELISA kit (Assay Pro, St. Charles, MO). For all assays, the manufacturer’s protocol was followed.
# Cytokine profiles in cell culture medium samples were also analysed by Luminex array for determination of 38 analytes in total, consisting of cytokines, chemokines, and growth factors using the MILLIPLEX MAP Human Cytokine/Chemokine Magnetic Bead Panel - Premixed 38 Plex (Merck Millipore, USA).
# Liver microtissues were cultured for 4 days in HEP-FAT medium, before dosing with obeticholic acid or elafibranor. Both compounds were dissolved in DMSO, diluted in cell culture medium (final DMSO concentration ≤1%) and added to microtissues during a full medium change every two days and in addition on the intervening days compounds were spiked into the media to increase drug concentration back to desired concentrations. Cultures were maintained in the presence of the compound, for a total of 10 days in the presence or absence of TGFβ.
# [3] = clinical dose; read-out: Plasma Cmax; cited from earlier work
smiles,measurement,setting,value
CSc1ccc(C(=O)/C=C/c2cc(C)c(OC(C)(C)C(=O)O)c(C)c2)cc1 [Elafibranor],recovery at 1 µM,[1],97%
same,"inflammatory cytokines, including CXCL1, IL1-Rα, IL-6 and MCP-1",[2]; 10 days of compound treatment,concentration-dependent decrease
same,CXCL1 fold change in production compared to control,"[2]; ELF 1.3 µM QD, D8",0.8888
same,CXCL10 fold change in production compared to control,"[2]; ELF 1.3 µM QD, D8",0.9847
same,FN1 fold change in production compared to control,"[2]; ELF 1.3 µM QD, D8",0.9865
same,IL-1RA fold change in production compared to control,"[2]; ELF 1.3 µM QD, D8",0.559
same,IL-4 fold change in production compared to control,"[2]; ELF 1.3 µM QD, D8",1.264
same,IL-6 fold change in production compared to control,"[2]; ELF 1.3 µM QD, D8",0.3707
same,IL-8 fold change in production compared to control,"[2]; ELF 1.3 µM QD, D8",1.017
same,MCP-1 fold change in production compared to control,"[2]; ELF 1.3 µM QD, D8",1.109
same,MIP-1a fold change in production compared to control,"[2]; ELF 1.3 µM QD, D8",0.8137
same,MIP-1b fold change in production compared to control,"[2]; ELF 1.3 µM QD, D8",0.885
same,TIMP-1 fold change in production compared to control,"[2]; ELF 1.3 µM QD, D8",0.8634
same,VEGF fold change in production compared to control,"[2]; ELF 1.3 µM QD, D8",0.3678
same,CXCL1 fold change in production compared to control,"[2]; ELF 1.3 µM QD, D14",0.5791
same,CXCL10 fold change in production compared to control,"[2]; ELF 1.3 µM QD, D14",0.6755
same,FN1 fold change in production compared to control,"[2]; ELF 1.3 µM QD, D14",1.109
same,IL-1RA fold change in production compared to control,"[2]; ELF 1.3 µM QD, D14",0.3482
same,IL-4 fold change in production compared to control,"[2]; ELF 1.3 µM QD, D14",0.8813
same,IL-6 fold change in production compared to control,"[2]; ELF 1.3 µM QD, D14",0.3647
same,IL-8 fold change in production compared to control,"[2]; ELF 1.3 µM QD, D14",0.625
same,MCP-1 fold change in production compared to control,"[2]; ELF 1.3 µM QD, D14",0.9408
same,MIP-1a fold change in production compared to control,"[2]; ELF 1.3 µM QD, D14",0.8725
same,MIP-1b fold change in production compared to control,"[2]; ELF 1.3 µM QD, D14",1.297
same,TIMP-1 fold change in production compared to control,"[2]; ELF 1.3 µM QD, D14",0.9244
same,VEGF fold change in production compared to control,"[2]; ELF 1.3 µM QD, D14",0.5658
same,CXCL1 fold change in production compared to control,"[2]; ELF 13 µM QD, D8",0.7659
same,CXCL10 fold change in production compared to control,"[2]; ELF 13 µM QD, D8",0.8228
same,FN1 fold change in production compared to control,"[2]; ELF 13 µM QD, D8",0.9502
same,IL-1RA fold change in production compared to control,"[2]; ELF 13 µM QD, D8",0.4867
same,IL-4 fold change in production compared to control,"[2]; ELF 13 µM QD, D8",1.05
same,IL-6 fold change in production compared to control,"[2]; ELF 13 µM QD, D8",0.3808
same,IL-8 fold change in production compared to control,"[2]; ELF 13 µM QD, D8",0.9446
same,MCP-1 fold change in production compared to control,"[2]; ELF 13 µM QD, D8",0.8534
same,MIP-1a fold change in production compared to control,"[2]; ELF 13 µM QD, D8",0.3878
same,MIP-1b fold change in production compared to control,"[2]; ELF 13 µM QD, D8",0.4913
same,TIMP-1 fold change in production compared to control,"[2]; ELF 13 µM QD, D8",0.6879
same,VEGF fold change in production compared to control,"[2]; ELF 13 µM QD, D8",0.494
same,CXCL1 fold change in production compared to control,"[2]; ELF 13 µM QD, D14",0.5325
same,CXCL10 fold change in production compared to control,"[2]; ELF 13 µM QD, D14",0.6314
same,FN1 fold change in production compared to control,"[2]; ELF 13 µM QD, D14",0.9442
same,IL-1RA fold change in production compared to control,"[2]; ELF 13 µM QD, D14",0.3167
same,IL-4 fold change in production compared to control,"[2]; ELF 13 µM QD, D14",1.0405
same,IL-6 fold change in production compared to control,"[2]; ELF 13 µM QD, D14",0.4596
same,IL-8 fold change in production compared to control,"[2]; ELF 13 µM QD, D14",0.6408
same,MCP-1 fold change in production compared to control,"[2]; ELF 13 µM QD, D14",0.5
same,MIP-1a fold change in production compared to control,"[2]; ELF 13 µM QD, D14",0.4932
same,MIP-1b fold change in production compared to control,"[2]; ELF 13 µM QD, D14",0.6533
same,TIMP-1 fold change in production compared to control,"[2]; ELF 13 µM QD, D14",0.6384
same,VEGF fold change in production compared to control,"[2]; ELF 13 µM QD, D14",1.282
same,CXCL1 fold change in production compared to control,"[2]; ELF 65 µM QD, D8",0.4476
same,CXCL10 fold change in production compared to control,"[2]; ELF 65 µM QD, D8",0.3212
same,FN1 fold change in production compared to control,"[2]; ELF 65 µM QD, D8",0.8989
same,IL-1RA fold change in production compared to control,"[2]; ELF 65 µM QD, D8",0.1707
same,IL-4 fold change in production compared to control,"[2]; ELF 65 µM QD, D8",0.5412
same,IL-6 fold change in production compared to control,"[2]; ELF 65 µM QD, D8",0.2914
same,IL-8 fold change in production compared to control,"[2]; ELF 65 µM QD, D8",0.5667
same,MCP-1 fold change in production compared to control,"[2]; ELF 65 µM QD, D8",0.402
same,MIP-1a fold change in production compared to control,"[2]; ELF 65 µM QD, D8",0.2899
same,MIP-1b fold change in production compared to control,"[2]; ELF 65 µM QD, D8",0.5458
same,TIMP-1 fold change in production compared to control,"[2]; ELF 65 µM QD, D8",0.784
same,VEGF fold change in production compared to control,"[2]; ELF 65 µM QD, D8",0.6076
same,CXCL1 fold change in production compared to control,"[2]; ELF 65 µM QD, D14",0.3166
same,CXCL10 fold change in production compared to control,"[2]; ELF 65 µM QD, D14",0.3403
same,FN1 fold change in production compared to control,"[2]; ELF 65 µM QD, D14",0.7375
same,IL-1RA fold change in production compared to control,"[2]; ELF 65 µM QD, D14",0.07012
same,IL-4 fold change in production compared to control,"[2]; ELF 65 µM QD, D14",0.3173
same,IL-6 fold change in production compared to control,"[2]; ELF 65 µM QD, D14",0.09996
same,IL-8 fold change in production compared to control,"[2]; ELF 65 µM QD, D14",0.4914
same,MCP-1 fold change in production compared to control,"[2]; ELF 65 µM QD, D14",0.1355
same,MIP-1a fold change in production compared to control,"[2]; ELF 65 µM QD, D14",0.3265
same,MIP-1b fold change in production compared to control,"[2]; ELF 65 µM QD, D14",0.1355
same,TIMP-1 fold change in production compared to control,"[2]; ELF 65 µM QD, D14",0.5288
same,VEGF fold change in production compared to control,"[2]; ELF 65 µM QD, D14",1.5699
same,Cmax,[3],13 µM
